Reference: patent US8952024B2, “Herbicidal pyrimidone derivatives” (E I du Pont de Nemours and Company, priority 2009, dated 2015)

Assays:
Experiment in all cases: Test D pre-/postemergence plant response
Assay type in all cases: in vivo
[1] = system: mallow (common mallow, Malva sylvestris); settings: Postemergence
Excerpt: (§1) Seeds of plant species selected from bermudagrass (Cynodon dactylon), Surinam grass (Brachiaria decumbens), large crabgrass (Digitaria sanguinalis), green foxtail (Setaria viridis), goosegrass (Eleusine indica), johnsongrass (Sorghum halepense), kochia (Kochia scoparia), morningglory (pitted morningglory, Ipomoea lacunosa), nutsedge (purple nutsedge, Cyperus rotundus), ragweed (common ragweed, Ambrosia elatior), black mustard (Brassica nigra), guineagrass (Panicum maximum), dallisgrass (Paspalum dilatatum), barnyardgrass (Echinochloa crus-galli), sandbur (southern sandbur, Cenchrus echinatus), sowthistle (common sowthistle, Sonchus oleraceous), prickly sida (Sida spinosa), Italian ryegrass (Lolium multiflorum), purslane (common purslane, Portulaca oleracea), signalgrass (broadleaf signalgrass, Brachiaria platyphylla), groundsel (common groundsel, Senecio vulgaris), chickweed (common chickweed, Stellaria media), dayflower (Virginia (VA) dayflower, Commelina virginica), bluegrass (annual bluegrass, Poa annua), naked crabgrass (Digitaria nuda), itchgrass (Rottboellia cochinchinensis), quackgrass (Elytrigia repens), field bindweed (Convolvulus arvensis), spanishneedles (Bidens bipinnata), mallow (common mallow, Malva sylvestris) and Russian thistle (Salsola kali), were planted into a blend of loam soil and sand and treated preemergence with test chemicals formulated in a non-phytotoxic solvent mixture which included a surfactant. At the same time, plants from these weed species were treated with postemergence applications of the test chemicals formulated in the same manner. Plants ranged in height from 2 to 18 cm (1- to 4-leaf stage) for postemergence treatments.
(§2) Treated plants and controls were maintained in a greenhouse for 14 to 21 days, after which time all species were visually evaluated and compared to controls. Plant response ratings, summarized in Table D, are based on a scale of 0 to 100 where 0 is no effect and 100 is complete control. A dash (-) response means no test result.

[2] = system: bluegrass (annual bluegrass, Poa annua); settings: Postemergence, scale 0 to 100 (0 no effect, 100 complete control)
Excerpt: as §1, §2

[3] = system: sandbur (southern sandbur, Cenchrus echinatus); settings: Postemergence
Excerpt: as §1, §2

[4] = system: quackgrass (Elytrigia repens); settings: Postemergence
Excerpt: as §1, §2

[5] = system: sowthistle (common sowthistle, Sonchus oleraceous); settings: Postemergence
Excerpt: as §1, §2

[6] = system: field bindweed (Convolvulus arvensis); settings: Postemergence
Excerpt: as §1, §2

[7] = system: dayflower (Virginia (VA) dayflower, Commelina virginica); settings: Postemergence
Excerpt: as §1, §2

[8] = system: prickly sida (Sida spinosa); settings: Postemergence
Excerpt: as §1, §2

[9] = system: itchgrass (Rottboellia cochinchinensis); settings: Postemergence
Excerpt: as §1, §2

[10] = 62 g ai/ha, scale 0 to 100 (0 no effect, 100 complete control)
[11] = 125 g ai/ha, scale 0 to 100 (0 no effect, 100 complete control)
[12] = 250 g ai/ha, scale 0 to 100 (0 no effect, 100 complete control)

## COCCCn1c(-c2cccc(F)c2)ncc(C(=O)C2=C(O)C3CCC(C3)C2=O)c1=O (centres unmarked) [Compound 238]
[1]; 31 g ai/ha, scale 0 to 100
  Plant response rating, Mallow: 25
[1]; [10]
  Plant response rating, Mallow: 35
[1]; [11]
  Plant response rating, Mallow: 50
[1]; [12]
  Plant response rating, Mallow: 60
[2]; 31 g ai/ha
  Plant response rating, Bluegrass: 0
[2]; 62 g ai/ha
  Plant response rating, Bluegrass: 5
[2]; 125 g ai/ha
  Plant response rating, Bluegrass: 20
[2]; 250 g ai/ha
  Plant response rating, Bluegrass: 40
[3]; 31 g ai/ha, scale 0 to 100
  Plant response rating, Sandbur: 50
[3]; [10]
  Plant response rating, Sandbur: 75
[3]; [11]
  Plant response rating, Sandbur: 75
[3]; [12]
  Plant response rating, Sandbur: 85
[4]; 31 g ai/ha, scale 0 to 100
  Plant response rating, Quackgrass: 5
[4]; [10]
  Plant response rating, Quackgrass: 5
[4]; [11]
  Plant response rating, Quackgrass: 30
[4]; [12]
  Plant response rating, Quackgrass: 40
[5]; 31 g ai/ha, scale 0 to 100
  Plant response rating, Sowthistle: 95
[5]; [10]
  Plant response rating, Sowthistle: 95
[5]; [11]
  Plant response rating, Sowthistle: 95
[5]; [12]
  Plant response rating, Sowthistle: 95
[6]; 31 g ai/ha, scale 0 to 100
  Plant response rating, Field Bindweed: 35
[6]; [10]
  Plant response rating, Field Bindweed: 50
[6]; [12]
  Plant response rating, Field Bindweed: 50
[7]; 31 g ai/ha, scale 0 to 100
  Plant response rating, Dayflower, VA: 35
[7]; [10]
  Plant response rating, Dayflower, VA: 65
[7]; [11]
  Plant response rating, Dayflower, VA: 70
[7]; [12]
  Plant response rating, Dayflower, VA: 75
[8]; 31 g ai/ha, scale 0 to 100
  Plant response rating, Prickly Sida: 30
[8]; [10]
  Plant response rating, Prickly Sida: 30
[8]; [11]
  Plant response rating, Prickly Sida: 50
[8]; [12]
  Plant response rating, Prickly Sida: 65
[9]; 31 g ai/ha, scale 0 to 100
  Plant response rating, Itchgrass: 70
[9]; [10]
  Plant response rating, Itchgrass: 70
[9]; [11]
  Plant response rating, Itchgrass: 75
[9]; [12]
  Plant response rating, Itchgrass: 80
